“Also recorded” adds a separate entry of the source.
Tested on: persister cells of Staphylococcus aureus ATCC 6538 [황색포도상구균(Staphylococcus aureus ATCC 6538), 존속성 세균(persister cell)]
Assay: Persister cell inhibition by beta-caryophyllene co-treated with antibiotics at 10x MIC (CFU count)
Assay type: cell-based

SMILES: C=C1CC/C=C(\C)CC[C@@H]2[C@@H]1CC2(C)C [베타-카리오필렌, β-caryophyllene]
- amount of persister cells (beta-caryophyllene 1 mM or more, each antibiotic (oxacillin, tobramycin, ciprofloxacin) at 10x MIC, 24 h): 상당량 감소
- inhibition of persister cells (beta-caryophyllene 2 mM or more, all antibiotics (oxacillin, tobramycin, ciprofloxacin) at 10x MIC, 24 h, about 80% or more): ≥ 80%
- amount of persister cells (beta-caryophyllene 1 to 10 mM): 크게 저하
- inhibitory effect on persister cells (beta-caryophyllene 2 to 10 mM, various antibiotics): ≥ 80%
- amount of persister cells (beta-caryophyllene together with antibiotic at 10x MIC, 24 h, no beta-caryophyllene concentration stated): 존속성 세균의 양이 감소
- inhibition of persister cells (ciprofloxacin, weight ratio beta-caryophyllene:antibiotic about 10:1 to 100:1): ≥ 80%
- inhibition of persister cells (oxacillin, weight ratio beta-caryophyllene:antibiotic about 100:1 to 800:1): ≥ 80%
- inhibition of persister cells (in words) (persister cells not killed by oxacillin, tobramycin or ciprofloxacin, no beta-caryophyllene concentration stated): 상당량 억제; also recorded: 효과적으로 억제; also recorded: 우수한 억제 활성
- inhibition of persister cells (tobramycin, weight ratio beta-caryophyllene:antibiotic about 5:1 to 30:1): ≥ 80%

From patent KR20230169706A, “베타-카리오필렌을 포함하는 존속성 세균 억제용 조성물” (국민대학교산학협력단, priority 2022, dated 2023)
